In paper PMC12603982 (Angewandte Chemie (International Ed. in English), 2025):
Starred links: 1 amine or outer side, 2 acyl side, 3 side chain; linkers in the order of their positions; H or OH if unused. Positions of bridges follow the written chain, without caps; N, C: chain ends. Non-standard residues stand in square brackets, D forms with d. Residues, ends and D or L forms follow the SMILES beside them. Groups on a side chain read outwards from the residue. *: point of attachment. X1 = CCN1C(=CC=CC2=[N+](CCCCCC(=O)*)c3ccc(S(=O)(=O)O)cc3C2(C)C)C(C)(C)c2cc(S(=O)(=O)[O-])ccc21; d(εLys) = N[C@H](CCCCN[*:1])C(=O)[*:2]; X2 = O=C(CC1(S[*:2])CCCCC1)[*:1]; PEG5 = NCCOCCOCCOCCOCCOCCC(=O)O; Orn = NCCC[C@H](N)C(=O)O; Mpa = O=C(O)CCS

Key:
hOTR = target: T1, hOTR (Homo sapiens, UniProt P30559); assay: Radioligand displacement and saturation binding, membranes of HEK293 cells stably expressing hOTR, [3H]-OT; conditions: for Ki: [3H]-OT, mean ± SD, duplicates, at least three independent experiments, read-out: Ki hOTR
T1 construct: expressed in transfected cells
T1 sequence (P30559 1-389): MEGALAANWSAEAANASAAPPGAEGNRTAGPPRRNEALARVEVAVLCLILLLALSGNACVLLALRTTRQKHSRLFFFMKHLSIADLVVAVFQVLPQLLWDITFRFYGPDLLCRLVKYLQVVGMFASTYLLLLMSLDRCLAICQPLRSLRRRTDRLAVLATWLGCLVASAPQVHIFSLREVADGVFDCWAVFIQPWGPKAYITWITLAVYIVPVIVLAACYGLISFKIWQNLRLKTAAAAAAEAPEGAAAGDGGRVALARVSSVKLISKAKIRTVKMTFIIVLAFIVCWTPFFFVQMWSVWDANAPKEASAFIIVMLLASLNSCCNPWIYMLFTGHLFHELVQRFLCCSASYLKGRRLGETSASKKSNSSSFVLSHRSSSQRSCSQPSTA
Method: (§1) Membrane preparation for radioligand assays. HEK293 cells were used for stable expression of GFP-tagged
(§2) human OTR, V1aR, V1bR, and V2R isoforms and transient expression of murine OTR, V1aR, V1bR, and V2R
(§3) isoforms. Cell culture work was performed under sterile conditions with DMEM high glucose containing 10%
(§4) FBS, and 50 U/mL P/S. Cells were cultured in 10 cm diameter cell culture dishes at 37°C in a humidified
(§5) atmosphere with 5% CO2, and cells were passaged at 70-90% confluency.
(§6) medium of stable cell lines at 0.5 mg/mL to sustain selection pressure, and cells were harvested at 90% confluency
(§7) for membrane preparation. For transient expression of murine receptors, 60% confluent wild-type HEK293 cells
(§8) were transfected using the jetPRIME transfection reagent according to the manufacturer’s protocol and harvested
(§9) 48 h post-transfection. For membrane preparation, cells were washed with ice-cold PBS pH 7.4, scraped into fresh
(§10) PBS on ice, and centrifuged at 4°C and 178 g for 10 min. The pellet was resuspended in a TRIS buffer solution
(§11) ice-cold water bath sonicator. The obtained solution was centrifuged for 20 min at 54,192 g and 4°C. The obtained
(§12) pellet was resuspended in TRIS buffer without protease inhibitors, homogenized with an ultrasonicator, aliquoted,
(§13) and stored at -80°C until further use. A BCA assay was used to determine the protein concentration of the
(§14) Radioligand displacement and saturation experiments. Assay solutions consisting of competing ligand,
(§15) radioligand, and membrane preparation were incubated for 1 h at 37°C. Standard binding buffer solution (50 mM
(§16) TRIS, 5 mM MgCl2, 0.1% BSA, pH 7.4) was used to prepare all dilutions; the final assay volume was 200 µL.
(§17) concentrations were 8 μg/vial for hOTR, 5 μg/vial for hV1aR, and 3 μg/vial for hV1bR and hV2R, respectively , and
(§18) 4 μg/vial for mOTR, 1.5 μg/vial for m V1aR, 3 μg/vial for mV 1bR, and 10 μg/vial for mV 2R. To assess non-specific
Specific binding was determined by
(§19) subtraction of the non-specific binding from the total binding. In radioligand displacement experiments, semi -
(§20) logarithmically spaced concentrations of respective test ligands were applied to determine K i values based on
(§21) assessed Kd values of radiotracers and by fitting the data to a three -parameter logistic Hill equation and applying
(§22) the Cheng and Prusoff approximation. 10 In case of human receptors from stable cell lines, Kd and Bmax values were
(§23) In case of murine receptors from transient
(§24) was performed using GraphPad Prism (version 9.5.1) . After incubation, membranes were filtered and washed on
(§25) a Skatron Cell Harvester using polyethyleneimine -coated glass fiber filters (type B, soaked in 0.1% aqueous
1 mM MgCl2, pH 7.4, 4°C). The soaked filter pieces were transferred into counter vials, and 2 mL of scintillation
cocktail (LSC Universalcocktail) was added to each vial. After 1 h incubation at 25°C on a shaker, radioligand
concentration was determined using a Tri -Carb liquid scintillation analyzer.
response curves were obtained from radioligand displacement experiments of membrane preparations of HEK293
Values were normalized to the percentage
of maximum binding (i.e., no competing ligand present). Specific binding was obtained from the subtraction of
non-specific binding from total binding. K i values were derived from one-site-fitted competition binding curves.

[1] = system: human uterine smooth muscle cells (UtSMC); assay: Stimulation of primary human uterine smooth muscle cells (UtSMC); type: cell-based
Method: (§26) Finally, we evaluated whether tracer (11) is applicable in primary cells endogenously expressing OTR.
(§27) Primary UtSMC and hippocampal neuronal cultures.
(§28) Muscle Cell Basal Medium 2 (PromoCell), including supplements (PromoCell) and P/S (Gibco) at 37°C and 5%
(§29) CO2. Cells were trypsinized with 0.1% Trypsin/EDTA (Gibco) and plated on glass -bottom 96-well plates (CellVis)
(§30) at a density of 10,000 cells/well in full growth medium. The next day, cells were stimulated with tracer ( 11), OTA ,
(§31) dissociated with flame -polishe d Pasteur pipettes in Hank’s balanced salt solution (HBSS, Gibco). Tissue pieces
(§32) were subsequently enzymatically dissociated with 0.1% Trypsin/EDTA (Gibco) in Neurobasal A (NBA, Gibco)
(§33) containing 1,000U/mL DNase (Sigma) for 5 min at 37°C. Cells were triturated with flamed Pasteur pipettes,
(§34) filtered through a 40 µm nylon mesh ( Thermo Fisher Scientific ), centrifuged at 200 g for 5 min, and washed up to
(§35) three times in NBA containing P/S (Gibco), GlutaMax (Gibco) , and B27 supplement (Gibco). Cells were plated at
(§36) 20,000 cells/well on PDL -coated (Sigma) glass -bottom black 96 -well microscopy plates (Cellvis) and grown at
(§37) 37°C with 5% CO 2. Half of the medium was replaced every 3 -4 days. After 13 -14 days in vitro , neuronal cultures
(§38) were exposed to 100 nM tracer ( 11) for one hour, with or without 30-min pretreatment with 10 µM of the peptide
antagonist OTA. In parallel, neurons were exposed to 100 nM of the scrambled tracer SCR for 1 h. After
stimulations, cells were washed with ice-cold PBS and fixed with 4% paraformaldehyde for 30 min on ice. Next,
washed again in PBS, and directly imaged on a Zeiss LSM880 confocal microscope.

[2] = system: mouse embryonic hippocampal neurons; assay: Tracer uptake in primary mouse hippocampal neurons; type: cell-based
Method: as §26, §27, §28, §29, §30, §31, §32, §33, §34, §35, §36, §37, §38
antagonist OTA. […]

hOTR-GFP in HEK293 cells [3] = target: T2, hOTR-GFP in HEK293 cells (Homo sapiens, UniProt P30559); assay: Live-cell imaging (ZEISS Lattice SIM) of hOTR-GFP internalization; conditions: 10 and 100 nM tracer
T2 sequence (P30559 1-389): T1 sequence (P30559 1-389)
Method: We first exposed hOTR‐GFP cells to 10 and 100 nM of tracer (11) during acquisition with a ZEISS Lattice SIM microscope (Movies S1 and S2). […] To further disentangle the dynamics of our tracer‐mediated OTR engagement and trafficking, we evaluated its applicability in single‐particle tracking (SPT) in living cells. We cultured HEK293 (parent cells) and HEK293 cells stably expressing hOTR‐GFP (HEK293‐hOTR‐GFP) and performed total internal reflection microscopy (TIRFM) SPT universal point accumulation imaging in nanoscale topography (uPAINT) following the addition of 1 nM of tracer (10). […] This concentration was selected to facilitate the detection and tracking of single molecules of the fluorescent agonist tracer following binding to hOTR at the plasma membrane by uPAINT. […] We first assessed the number of tracks (indicative of the number of single molecules detected/tracked). […] We quantified the mean squared displacement of each trajectory to calculate its apparent diffusion coefficient. The diffusion coefficient of each trajectory of the tracer bound to hOTR was plotted as a frequency distribution (Figure 7b2 ).
Live cell imaging. For 3D live cell imaging, attached and serum -starved HEK293-hOTR-GFP cells in 96-well
glass bottom plates were imaged on a ZEISS Lattice SIM Microscope using a 40x oil objective and SIM 2 post- […]

hOTR-GFP in HEK293 cells [4] = target: T2, hOTR-GFP in HEK293 cells; assay: hOTR-GFP internalization and tracer uptake, confocal microscopy after fixation/ICC; type: cell-based; set-up: expressed in transfected cells
From the text: To validate the application scope of our tracers for biological systems and post‐hoc imaging, we used HEK293 cells stably overexpressing human OTR or V1aR, tagged with a C‐terminal fused green fluorescent protein to visualize receptor trafficking (hOTR‐GFP or hV1aR‐GFP, respectively).
subsequently washed with PBS and processed for immunocytochemistry.
Immunocytochemistry and imaging. Unspecific protein binding was quenched with 5% normal donkey serum
(Jackson ImmunoResearch), 2% bovine serum albumin (Sigma-Aldrich, Merck), and 0.2% Triton X-100 (Sigma-
Aldrich, Merck) in PBS. Next, cells were exposed to primary antibody cocktails containing FITC-conjugated goat-
anti-GF (1:2000, Sigma-Aldrich, Merck) and mouse pCREB (1:300, Sigma-Aldrich, Merck) in PBS with 2%
normal donkey serum, 0.1% BSA, and 0.2% Triton X-100 overnight at 4°C. After three PBS washing steps, wells
were incubated with secondary antibody cocktails (1:400, Jackson Immuno Research) containing suitable
were mounted with glycerol gelatin (Sigma-Aldrich, Merck) and imaged on a Zeiss LSM 780/880 confocal
microscope (Zeiss). Images were analyzed and equally contrasted for visualization with ZEN Pro (Zeiss) and

mV2R = target: T3, mV2R (Mus musculus, UniProt O88721); assay: Radioligand displacement, membranes of HEK293 cells transiently expressing mV2R; type: binding; conditions: murine receptor, transient expression; mean ± SD
T3 construct: expressed in transfected cells; host or cells: wild-type HEK293, transient transfection (jetPRIME); membrane preparation
T3 sequence (O88721 whole entry): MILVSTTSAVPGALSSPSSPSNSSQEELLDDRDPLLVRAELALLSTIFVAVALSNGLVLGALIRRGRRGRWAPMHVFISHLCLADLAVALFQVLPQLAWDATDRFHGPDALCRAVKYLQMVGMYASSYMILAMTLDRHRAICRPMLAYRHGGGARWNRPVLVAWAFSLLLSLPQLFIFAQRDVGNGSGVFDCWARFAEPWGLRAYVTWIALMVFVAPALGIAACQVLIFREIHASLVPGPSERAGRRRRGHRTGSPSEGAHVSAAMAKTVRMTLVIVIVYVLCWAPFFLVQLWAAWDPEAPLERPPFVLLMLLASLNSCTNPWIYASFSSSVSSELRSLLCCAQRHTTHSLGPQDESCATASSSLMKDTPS
Method: as §1, §2, §3, §4, §5, §6, §7, §8, §9, §10
(§39) The obtained solution was centrifuged for 20 min at 54,192 g and 4°C. The obtained […]
(§40) assessed Kd values of radiotracers and by fitting the data to a three -parameter logistic Hill equation and applying […]
(§41) concentration was determined using a Tri -Carb liquid scintillation analyzer. […]

[5] = system: rat embryonic hippocampal neurons; assay: Tracer uptake in primary rat hippocampal neurons; type: cell-based; conditions: 10 µM, 30 min
Method: as §26, §27, §28, §29, §30, §31, §32, §33, §34, §35, §36, §37, §38
antagonist OTA. […]

hV1aR = target: T4, hV1aR (Homo sapiens, UniProt P37288); assay: Radioligand displacement and saturation binding, membranes of HEK293 cells stably expressing hV1aR, [3H]-VP; conditions: read-out: Ki hV1aR
T4 construct: expressed in transfected cells
T4 sequence (P37288 whole entry): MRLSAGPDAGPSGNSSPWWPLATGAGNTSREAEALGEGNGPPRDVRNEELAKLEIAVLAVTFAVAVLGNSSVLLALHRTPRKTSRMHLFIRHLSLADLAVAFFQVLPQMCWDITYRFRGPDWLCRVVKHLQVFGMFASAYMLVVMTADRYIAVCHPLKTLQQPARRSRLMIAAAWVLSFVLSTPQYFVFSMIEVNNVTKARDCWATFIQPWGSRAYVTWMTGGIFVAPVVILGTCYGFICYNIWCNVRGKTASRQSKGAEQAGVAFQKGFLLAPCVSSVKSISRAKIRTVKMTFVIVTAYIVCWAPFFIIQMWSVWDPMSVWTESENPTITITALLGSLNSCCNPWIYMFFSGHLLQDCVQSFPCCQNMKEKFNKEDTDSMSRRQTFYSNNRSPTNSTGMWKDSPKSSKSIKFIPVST
Method: as §1, §2, §3, §4, §5, §6, §7, §8, §9, §10
(§42) ice-cold water bath sonicator. The obtained solution was centrifuged for 20 min at 54,192 g and 4°C. The obtained […]
Specific binding was determined by […]
as §40, §41

mV1bR = target: T5, mV1bR (Mus musculus, UniProt Q9WU02); assay: Radioligand displacement, membranes of HEK293 cells transiently expressing mV1bR; type: binding; conditions: murine receptor, transient expression; mean ± SD
T5 construct: expressed in transfected cells; host or cells: wild-type HEK293, transient transfection (jetPRIME); membrane preparation
T5 sequence (Q9WU02 1-421): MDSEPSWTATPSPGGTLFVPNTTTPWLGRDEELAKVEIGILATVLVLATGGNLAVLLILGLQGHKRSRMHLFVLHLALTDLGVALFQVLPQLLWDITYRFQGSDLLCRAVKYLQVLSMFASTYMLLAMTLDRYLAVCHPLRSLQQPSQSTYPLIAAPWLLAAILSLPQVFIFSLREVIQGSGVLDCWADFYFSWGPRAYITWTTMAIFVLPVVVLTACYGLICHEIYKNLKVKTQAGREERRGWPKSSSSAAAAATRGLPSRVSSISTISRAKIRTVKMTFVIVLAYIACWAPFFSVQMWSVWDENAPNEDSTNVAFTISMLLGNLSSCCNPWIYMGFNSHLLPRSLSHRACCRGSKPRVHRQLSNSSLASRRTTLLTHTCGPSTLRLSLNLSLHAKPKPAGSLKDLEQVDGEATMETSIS
Method: as §1, §2, §3, §4, §5, §6, §7, §8, §9, §10, §39, §40, §41

hV2R = target: T6, hV2R (Homo sapiens, UniProt P30518); assay: Radioligand displacement and saturation binding, membranes of HEK293 cells stably expressing hV2R, [3H]-VP; conditions: read-out: Ki hV2R
T6 construct: expressed in transfected cells; membrane preparation
T6 sequence (P30518 whole entry): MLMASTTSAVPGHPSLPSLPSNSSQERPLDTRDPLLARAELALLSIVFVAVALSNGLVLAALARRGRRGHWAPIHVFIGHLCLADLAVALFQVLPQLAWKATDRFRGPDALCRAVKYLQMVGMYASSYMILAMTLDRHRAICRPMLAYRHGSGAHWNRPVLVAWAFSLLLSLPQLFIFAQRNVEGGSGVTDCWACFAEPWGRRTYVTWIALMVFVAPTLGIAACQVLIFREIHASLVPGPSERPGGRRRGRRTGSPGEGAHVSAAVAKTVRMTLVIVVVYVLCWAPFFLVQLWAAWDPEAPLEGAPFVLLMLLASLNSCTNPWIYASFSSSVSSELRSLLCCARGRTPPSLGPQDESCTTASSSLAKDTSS
Method: as §1, §2, §3, §4, §5, §6, §7, §8, §9, §10, §42
Specific binding was determined by […]
as §40, §41

hV1bR = target: T7, hV1bR (Homo sapiens, UniProt P47901); assay: Radioligand displacement and saturation binding, membranes of HEK293 cells stably expressing hV1bR, [3H]-VP; conditions: read-out: Ki hV1bR
T7 construct: expressed in transfected cells; membrane preparation
T7 sequence (P47901 1-424): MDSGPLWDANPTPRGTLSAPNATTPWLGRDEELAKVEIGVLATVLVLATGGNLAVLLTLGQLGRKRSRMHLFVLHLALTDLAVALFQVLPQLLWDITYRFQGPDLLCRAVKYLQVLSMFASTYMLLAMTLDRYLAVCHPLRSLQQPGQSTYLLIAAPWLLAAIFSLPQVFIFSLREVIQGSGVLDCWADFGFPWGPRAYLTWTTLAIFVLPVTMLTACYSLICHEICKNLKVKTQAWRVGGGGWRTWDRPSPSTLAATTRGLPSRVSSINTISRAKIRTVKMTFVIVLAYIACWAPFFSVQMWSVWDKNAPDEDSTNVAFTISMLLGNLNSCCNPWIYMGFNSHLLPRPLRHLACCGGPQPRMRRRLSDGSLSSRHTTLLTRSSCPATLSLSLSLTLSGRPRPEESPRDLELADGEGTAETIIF
Method: as §1, §2, §3, §4, §5, §6, §7, §8, §9, §10, §42
Specific binding was determined by […]
as §40, §41

mOTR = target: T8, mOTR (Mus musculus, UniProt P97926); assay: Radioligand displacement, membranes of HEK293 cells transiently expressing mOTR; type: binding, murine
T8 construct: expressed in transfected cells; host or cells: wild-type HEK293, transient transfection (jetPRIME); membrane preparation
T8 sequence (P97926 1-388): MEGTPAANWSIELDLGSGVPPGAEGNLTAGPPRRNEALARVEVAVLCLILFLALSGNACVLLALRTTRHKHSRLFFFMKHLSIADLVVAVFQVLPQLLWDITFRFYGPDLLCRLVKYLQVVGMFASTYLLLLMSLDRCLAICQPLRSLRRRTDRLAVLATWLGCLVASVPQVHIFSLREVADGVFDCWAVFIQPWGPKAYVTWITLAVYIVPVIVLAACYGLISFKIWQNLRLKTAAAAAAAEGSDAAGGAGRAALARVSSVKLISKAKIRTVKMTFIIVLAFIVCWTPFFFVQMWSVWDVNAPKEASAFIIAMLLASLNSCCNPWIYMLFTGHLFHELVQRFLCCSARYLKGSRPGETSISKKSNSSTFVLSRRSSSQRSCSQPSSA
Method: as §1, §2, §3, §4, §5, §6, §7, §8, §9, §10, §11, §12, §13, §14, §15, §16, §17, §18
Specific binding was determined by
as §19, §20, §21, §22, §23, §24, §25
1 mM MgCl2, pH 7.4, 4°C). […]
as §41

mV1aR = target: T9, mV1aR (Mus musculus, UniProt Q62463); assay: Radioligand displacement, membranes of HEK293 cells transiently expressing mV1aR; type: binding; conditions: murine receptor, transient expression; mean ± SD
T9 construct: expressed in transfected cells; host or cells: wild-type HEK293, transient transfection (jetPRIME); membrane preparation
T9 sequence (Q62463 whole entry): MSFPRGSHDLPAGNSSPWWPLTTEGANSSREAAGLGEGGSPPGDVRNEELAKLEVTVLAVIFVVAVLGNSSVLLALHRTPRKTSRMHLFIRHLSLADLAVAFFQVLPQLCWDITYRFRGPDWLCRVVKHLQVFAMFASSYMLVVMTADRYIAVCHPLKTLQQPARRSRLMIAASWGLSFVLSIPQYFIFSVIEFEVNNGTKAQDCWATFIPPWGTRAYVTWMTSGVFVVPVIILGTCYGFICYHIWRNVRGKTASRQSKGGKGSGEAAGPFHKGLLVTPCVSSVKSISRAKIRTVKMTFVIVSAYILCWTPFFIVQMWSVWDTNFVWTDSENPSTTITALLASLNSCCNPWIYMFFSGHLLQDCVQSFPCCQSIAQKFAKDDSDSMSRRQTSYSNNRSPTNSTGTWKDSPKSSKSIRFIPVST
Method: as §1, §2, §3, §4, §5, §6, §7, §8, §9, §10, §39, §40, §41

## CC[C@H](C)[C@@H]1NC(=O)[C@H](Cc2ccc(O)cc2)NC(=O)CCSSC[C@@H](C(=O)N2CCC[C@H]2C(=O)N[C@@H](CCCNC(=O)[C@@H](CC(=O)O)NC(=O)CCOCCOCCOCCOCCOCCNC(=O)[C@H](N)CCCCNC(=O)CCCCC[N+]2=C(C=CC=C3N(CC)c4ccc(S(=O)(=O)[O-])cc4C3(C)C)C(C)(C)c3cc(S(=O)(=O)O)ccc32)C(=O)NCC(N)=O)NC(=O)[C@H](CC(N)=O)NC(=O)[C@H](CCC(N)=O)NC1=O [Compound 11] ([Mpa]YIQNCP[Orn]([dD-PEG5-d(εLys)-X1])G-NH2; disulfide 1-6)
hOTR
  Ki: 2 nM
[1]; 100 nM, live-cell imaging
  Contraction of UtSMC: induced rapid contractions within minutes
[1]; 60 min treatment
  Tracer uptake in UtSMC: accumulation was observed in vesicle‐like structures within 60 min
[2]; 100 nM, 1 h, E16.5 neurons cultured 14 days
  Tracer uptake in mouse hippocampal neurons: robust uptake in subpopulations of neurons
hOTR-GFP in HEK293 cells [3]
  Time to peak internalization: 5 to 10 min
hOTR-GFP in HEK293 cells [4]; post ICC, normalized to control
  Cy3s signal accumulation in hOTR-expressing cells: significant concentration‐dependent accumulation
mV2R
  Ki: > 10000 nM

## CC[C@H](C)[C@@H]1NC(=O)[C@@H](Cc2ccc(O)cc2)NC(=O)CC2(CCCCC2)SSC[C@@H](C(=O)N2CCC[C@H]2C(=O)N[C@@H](CCCN)C(=O)O)NC(=O)[C@H](CC(N)=O)NC(=O)[C@H]([C@@H](C)O)NC1=O [OTR antagonist (OTA), reference compound] ([dY]ITNCP[Orn]-OH; linker N-5 via X2)
[5]
  Effect of OTA pretreatment on tracer (11) uptake in rat hippocampal neurons: prevented compound (11) internalization
hV1aR
  Ki: 45.8 ± 11.9 nM
mV1bR
  Ki: > 10000 nM
hOTR; Ki ratio, VPR affinity divided by OTR affinity
  Selectivity ratio hV1aR/hOTR: 1.02
hOTR
  Ki: 44.9 ± 8.8 nM
[1]
  Effect of OTA pretreatment on tracer (11) in UtSMC: prevented tracer uptake as well as cellular contractions and membrane blebbing
[2]; 10 µM, 30 min
  Effect of OTA pretreatment on tracer (11) uptake in mouse hippocampal neurons: completely inhibited the uptake
hV2R
  Ki: > 10000 nM
hOTR-GFP in HEK293 cells [4]; 10 µM, 30 min before 1 h stimulation with 100 nM tracer
  Effect of antagonist pretreatment on hOTR-GFP internalization and accumulation of tracers (3) and (7): prevented hOTR‐GFP internalization and cytoplasmic accumulation
hOTR-GFP in HEK293 cells [4]; 10 µM, 30 min pretreatment
  Effect of antagonist pretreatment on tracer (11) uptake: completely prevented tracer (11) uptake
hOTR-GFP in HEK293 cells [4]; 10 µM, 30 min pretreatment, tracer (13) up to 100 nM
  Effect of antagonist pretreatment on tracer (13) uptake and GFP internalization: completely prevented
hV1bR
  Ki: > 10000 nM
mOTR; Ki ratio
  Selectivity ratio mV1aR/mOTR: >1500
  Selectivity ratio mV1bR/mOTR: >1500
  Selectivity ratio mV2R/mOTR: 510
mOTR; murine receptor, transient expression, mean ± SD
  Ki: 5.9 ± 1.7 nM
mV2R
  Ki: 3010 ± 346 nM
mV1aR
  Ki: > 10000 nM
